Columns and labels:
[1] = target: human catalytic domain HDAC4 protein (amino acids 648-1032) (Homo sapiens (Human), UniProt P56524); assay: Inhibition of HDAC4 catalytic domain enzymatic activity, fluorogenic substrate Boc-Lys(Tfa)-AMC; conditions: HDAC4 catalytic domain enzyme, read-out: Biochemical HDAC4 IC50
Description: Analysis of Inhibition of HDAC4 with Class IIa Histone Deacetylase (HDAC) Inhibitors
The potency of Class IIa Histone Deacetylase (HDAC) inhibitors is quantified by measuring the Histone Deacetylase 4 (HDAC4) catalytic domain enzymatic activity using the fluorogenic substrate, Boc-Lys(Tfa)-AMC. The substrate is deacetylated to Boc-Lys-AMC by HDAC4. Cleavage by trypsin results in the release of the fluorophore AMC from the deacetylated substrate. The fluorescence of the sample is directly related to the histone deacetylase activity in the sample.
Serially dilute HDAC inhibitor compounds. […] Stocks of 6 μl aliquots of the 10 mM compound in DMSO are prepared and stored at […]. From one stock aliquot of each compound to be tested and the reference compound, a 16-point serial dilution is prepared according to Table 1 using a 125 μl 16-channel Matrix multi-channel pipette (Matrix Technologies Ltd).
2 μl (200×) of each diluted solution and each control (full activity: 100% DMSO alone or full inhibition 1 mM) is stamped into V-bottomed polypropylene 384-well compound plates using either the Bravo (384-well head from Agilent) or 12.5 μl 16-channel Matrix multi-channel pipette (Matrix Technologies Ltd).
Prepare HDAC4 catalytic domain enzyme (0.2 μg/mL).
Prepare 5× ([…]) Boc-Lys(Tfa)-AMC Substrate. 5× (50 μM) substrate is prepared just prior to the addition to the assay. A 1 mM substrate stock is made by diluting a 100 mM Boc-Lys(Tfa)-AMC in DMSO solution 1:100 by adding it drop-wise to assay buffer (equilibrated to r.t.) while vortexing at slow speed to prevent precipitation. The 5× substrate is prepared by diluting the 1 mM substrate solution 1:20 by adding it drop-wise to assay buffer (equilibrated to r.t.) while vortexing at slow speed to prevent precipitation.
Prepare 3× (30 μM) Developer/Stop Solution.
Assay. 5 μl of each solution of 1:20 diluted compound from above is transferred to a clear bottomed, black, 384-well assay plate using the Bravo or the Janus (384-well MDT head from Perkin Elmer). Using a 16-channel Matrix multi-channel pipette, 35 μl of the working solution of HDAC4 catalytic domain enzyme (0.2 μg/mL in assay buffer) is transferred to the assay plate. […] The assay plate is then shaken for two minutes on an orbital shaker at 900 rpm (rotations per minute). Next the plate is incubated for 15 minutes at 37° C. The reaction is stopped by adding 25 μl of 3× (3 μM) developer/stop solution to the assay plates using either the Bravo, Janus or a 16-channel Matrix multi-channel pipette. Assay plates are then shaken for 5 minutes on an orbital shaker at 1200 rpm. Next, the assay plates are incubated at 37° C. for 1 hour in a tissue culture incubator.

[2] = tested on: cellular histone deacetylase enzymatic activity in Jurkat E6-1 cells; assay: Inhibition of cellular HDAC activity in Jurkat E6-1 cells, fluorogenic substrate Boc-Lys(Tfa)-AMC; assay type: cell-based; conditions: Homo sapiens, read-out: Cell IC50
Description: Analysis of Inhibition of Cellular HDAC Activity with Class IIa Histone Deacetylase (HDAC) Inhibitors
The potency of Class IIa Histone Deacetylase (HDAC) inhibitors is quantified by measuring the cellular histone deacetylase enzymatic activity using the fluorogenic substrate, Boc-Lys(Tfa)-AMC. After penetration in Jurkat E6-1 cells, the substrate is deacetylated to Boc-Lys-AMC. After cell lysis and cleavage by trypsin, the fluorophore AMC is released from the deacetylated substrate only. The fluorescence of the sample is directly related to the histone deacetylase activity in the sample.
Jurkat E6.1 cell culture and plating. Jurkat E6.1 cells are cultured according to standard cell culture protocols in Jurkat E6.1 Growth Media (RPMI without phenol red, 10% FBS, 1 mM HEPES, and 1 mM Sodium Pyruvate). Jurkat E6.1 cells are counted using a Coulter Counter and resuspended in Jurkat E6.1 growth media at a concentration of 75,000 cells/35 μl. 35 μl or 75,000 cells is seeded into Greiner microtitre assay plates. The plates are then incubated at 37° C. and 5% CO2 while other assay components are being prepared.
Serially dilute HDAC inhibitor compounds. Serial dilutions of the HDAC inhibitors and control reference compound (1-(5-(3-((4-(1,3,4-oxadiazol-2-yl)phenoxy)methyl)-1,2,4-oxadiazol-5-yl)thiophen-2-yl)-2,2,2-trifluoroethanone) are made by first resuspending the lyophilized compound to a final concentration of 10 mM in […]. Stocks of 70 μl aliquots of the 10 mM compound in DMSO are prepared and stored at −20° C. From one stock aliquot of each compound to be tested and the reference compound, a 16-point serial dilution is prepared according to Table 1 using a 125 μl 16-channel Matrix multi-channel pipette.
2 μl (200×) of each diluted solution and each control (full activity: 100% DMSO alone or full inhibition 1 mM) is stamped into V-bottom polypropylene 384-well compound plates using either the Bravo, Janus, or 12.5 μl 16-channel Matrix multi-channel pipette. Each well with the 200× compound solution is diluted 1:20 by the addition of 38 μl Jurkat assay buffer+DMSO (9.5% DMSO, RPMI without phenol red, 0.09% FBS, 9 mM Hepes, and 0.9 mM Sodium Pyruvate equilibrated to r.t.)
Prepare 5× (500 μM) Boc-Lys(Tfa)-AMC substrate. 5× (500 μM) substrate is prepared just prior to the addition to the assay. The 5× substrate is prepared by diluting a 100 mM Boc-Lys(Tfa)-AMC in DMSO solution 1:200 by adding it drop-wise to Jurkat assay medium (RPMI without phenol red, 0.1% FBS, 10 mM Hepes, and 1 mM Sodium Pyruvate equilibrated to 37° C.) while vortexing at slow speed to prevent precipitation.
Prepare 3× Lysis Buffer. 10 mL of 3× lysis buffer is prepared with 8.8 mL of 3× stock lysis buffer (50 mM Tris-HCl, pH 8.0, 137 mM NaCl, 2.7 mM KCl, 1 mM MgCl2, 1% Nonidet P40 Substitute equilibrated to r.t.) and 1.2 mL of 3 mg/mL Trypsin equilibrated to r.t.
Assay. 5 μl of each solution of 1:20 diluted compound from above is transferred to the Greiner microtitre assay plates with 75,000 cells/well using the Bravo. Cells are then incubated for 2 hours at 37° C. and 5% CO2. The assay is then started by adding 10 μl of 5× (500 μM) substrate to the assay plate using either the Bravo or 16-channel Matrix multi-channel pipette. The cells are then incubated for 3 hours at 37° C. and 5% CO2. Next, 25 μl of 3× lysis buffer is added to each well using either the 125 μl 16 channel pipette or the Bravo. The assay plate is then incubated overnight (15-16 hours) at 37° C. and 5% CO2. The following day, the plates are shaken on an orbital shaker for 1 minute at 900 rpm. Finally the top read fluorescence (Excitation: 355 nm, Emission: 460 nm) is measured using PerkinElmer EnVision.

Sequence of human catalytic domain HDAC4 protein (amino acids 648-1032) (P56524 648-1032): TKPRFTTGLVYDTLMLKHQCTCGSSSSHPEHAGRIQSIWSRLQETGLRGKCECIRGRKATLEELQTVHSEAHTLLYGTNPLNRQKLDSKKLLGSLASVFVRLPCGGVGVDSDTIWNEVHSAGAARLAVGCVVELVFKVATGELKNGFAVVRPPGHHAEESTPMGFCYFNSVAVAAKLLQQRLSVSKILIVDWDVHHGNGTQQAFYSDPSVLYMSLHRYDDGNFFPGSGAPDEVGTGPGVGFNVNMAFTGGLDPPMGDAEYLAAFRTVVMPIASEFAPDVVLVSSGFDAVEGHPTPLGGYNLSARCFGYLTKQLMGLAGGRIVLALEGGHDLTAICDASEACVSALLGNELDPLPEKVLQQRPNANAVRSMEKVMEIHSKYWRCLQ

Row | IC50 [1] [nM] | IC50 [2] [nM] | SMILES
1 | 150 | 1280 | Cc1c(F)cccc1[C@]1(C(=O)NO)CC[C@H](c2cncc(F)c2)C1 (stereo in doubt) [Example 9, (1S,3S*)-1-(3-fluoro-2-methyl-phenyl)-3-(5-fluoropyridin-3-yl)-N-hydroxycyclopentanecarboxamide]
2 | 270 | 410 | Cc1c(F)cccc1[C@]1(C(=O)NO)CC[C@H](c2ccc3c(c2)NCC(C)(C)O3)C1 (relative stereo) [Example 73]
3 | 140 | 1390 | Cc1c(F)cccc1[C@]1(C(=O)NO)CC[C@@H](c2cncc(F)c2)C1 (stereo in doubt) [Example 10, (1S,3R*)-1-(3-fluoro-2-methyl-phenyl)-3-(5-fluoropyridin-3-yl)-N-hydroxycyclopentanecarboxamide]
4 | 290 | 1910 | Cc1c(F)cccc1[C@]1(C(=O)NO)CC[C@@H](c2cncnc2)C1 (relative stereo) [Example 2, (±)-(1S*,3R*)-1-(3-fluoro-2-methylphenyl)-N-hydroxy-3-(pyrimidin-5-yl)cyclopentanecarboxamide]
5 | 2500 | 18500 | O=C(NO)C1(c2cccc(F)c2F)CCCC1 [Example 15, 1-(2,3-difluorophenyl)-N-hydroxycyclopentanecarboxamide]
6 | 150 | 580 | Cc1c(F)cccc1[C@]1(C(=O)NO)CC[C@@H](c2cc3c(cnn3C)cc2F)C1 [Example 81, (1S,3R)-3-(5-Fluoro-1-methyl-1H-indazol-6-yl)-1-(3-fluoro-2-methylphenyl)-N-hydroxycyclopentanecarboxamide]
7 | 4600 | 44700 | O=C(NO)C1(c2ccccc2F)CCCC1 [Example 19, 1-(2-fluorophenyl)-N-hydroxycyclopentanecarboxamide]
8 | 200 | 1900 | Cc1c(F)cccc1[C@]1(C(=O)NO)CC[C@@H](Oc2cncc(F)c2)C1 [Example 93, (1S,3R)-1-(3-fluoro-2-methylphenyl)-3-((5-fluoropyridin-3-yl)oxy)-N-hydroxycyclopentanecarboxamide]
9 | 62 | 120 | Cc1c(F)cccc1[C@]1(C(=O)NO)CC[C@@H](c2ccc3ncccc3c2)C1 (relative stereo) [Example 85, (1 S,3R*)-1-(3-Fluoro-2-methylphenyl)-N-hydroxy-3-(quinolin-6-yl)cyclopentanecarboxamide]
10 | 250 | 1800 | Cc1c(F)cccc1[C@]1(C(=O)NO)CC[C@H](c2ccnn2C)C1 (relative stereo) [Example 50, (1S,3S*)-1-(3-Fluoro-2-methylphenyl)-N-hydroxy-3-(1-methyl-1H-pyrazol-5-yl)cyclopentanecarboxamide]
11 | 190 | 420 | COc1ncc([C@@H]2CC[C@@](C(=O)NO)(c3cccc(F)c3C)C2)cc1F (relative stereo) [Example 45, (1S,3R*)-1-(3-fluoro-2-methylphenyl)-3-(5-fluoro-6-methoxypyridin-3-yl)-N-hydroxycyclopentanecarboxamide]
12 | 95 | 540 | Cc1c(F)cccc1[C@]1(C(=O)NO)CC[C@@H](c2cnn(C(F)F)c2)C1 (relative stereo) [Example 46, (1S,3R*)-3-(1-(Difluoromethyl)-1H-pyrazol-4-yl)-1-(3-fluoro-2-methylphenyl)-N-hydroxy cyclopentane carboxamide]
13 | > 50000 | > 50000 | O=C(NO)C1(c2ccccc2)CCCCC1 [Example 98, 1-phenyl-N-hydroxycyclohexylcarboxamide]
14 | > 50000 | > 50000 | N#Cc1cccc(C2(C(=O)NO)CCCC2)c1 [Example 28, 1-(3-Cyanophenyl)-N-hydroxycyclopentanecarboxamide]
15 | 59 | 110 | Cc1c(F)cccc1[C@]1(C(=O)NO)CC[C@H](c2ccc3ncn(C)c3c2)C1 (relative stereo) [Example 71, (1S,3S*)-1-(3-Fluoro-2-methylphenyl)-N-hydroxy-3-(1-methyl-1H-benzo[d]imidazol-6-yl)cyclopentanecarboxamide]

— patent US9783488B2 (CHDI Foundation, Inc., priority 2013, dated 2017)
